Experimental data from patent US4118561A, “7-(Substituted)-7H-pyrrolo[3,2-f]quinazoline-1,3-diamines” (priority 1977, dated 1978).
≈ marks a conversion by molar mass, not a printed value. Like-named read-outs stand apart in the source and are kept apart here.

Tests used:
S. paratyphi 11737 = assay: In vitro antibacterial activity (MIC), S. paratyphi 11737; assay type: cell-based; conditions: Salmonella enterica, 18 h
[1] = Antimalarial blood schizonticidal test in mice; assay type: in vivo, Plasmodium berghei (infected ICR/HA Swiss mice); parameters: ΔMST (increase in mean survival time): unit: days; conditions: mouse, in vivo, sc, single dose, read-out: Highest Non-Lethal Dose
Source text: (§1) In addition, the invention provides compounds which have antimalarial activity in vivo as evidenced by a standard blood schizonticidal test in mice infected with Plasmodium berghei KBG 173.
(§2) Utilizing young ICR/HA Swiss mice and a standard inoculum of Plasmodium berghei KBG 173, it is possible to produce a uniform disease fatal to 100% of untreated animals within 6 to 8 days with a mean survival time of 6.2 days. Test animals weigh from 18 to 22 grams but weight variations in any given experimental or control group are confined to 2-3 grams. All animals in any given test are approximately of the same age. Animals on test are housed in metal-topped plastic cages, given a standard laboratory diet and water ad libitum.
(§3) Test animals receive an intraperitoneal injection of 0.5 ml. of 1:100 dilution of heparinized heart's blood with a minimum of 90% parasitized cells (4 × 10^7 cells), drawn from donor mice infected one week earlier with Plasmodium berghei. The donor strain is maintained by weekly passages in separate groups of mice inoculated with a 0.5 ml. of 1:500 dilution of heparinized heart's blood.
(§4) Test compounds are administered after dissolution or suspension in peanut oil. A single dose is given subcutaneously 72 hours after the mice are infected with Plasmodium berghei. At this time a 10-15 percent parasitemia has developed; the disease is well established but has not produced sufficient debility to alter the response of the host to toxic effects of the drug on test. Since treatment is withheld for three days to permit the infection to become well established and death occurs in untreated controls within 6-8 days, it is felt that this system presents a candidate compound with the maximum challenge. In order to check factors such as changes in the infectivity of Plasmodium berghei or in the susceptibility of the host or to detect technical errors, a group of infected animals treated with pyrimethamine at dose levels producing definite increases in survival time is included in a positive control in every experiment.
(§5) In each experiment test compounds are administered in graded dosages. […] However, if an active drug is toxic for the host, its toxicity may become a limiting factor; continued increases in dose levels also increase the toxic effects and may result in the diminution of survival times. Deaths prior to the sixth day, when untreated controls begin to die, are regarded as nonparasitic and become the basis for toxicity evaluations. […] In calculating mean survival time, toxic deaths and 60-day survivors are not included.
(§6) Compounds are considered active which produce a cure in at least one test animal or which produce significant increases in mean survival times of the treated animals as compared with the mean survival times of untreated controls, provided that no drug related deaths (toxicity) are noted at the active dose.

[2] = test system: Plasmodium berghei KBG 173; assay: Antimalarial blood schizonticidal test in mice; assay type: in vivo, Plasmodium berghei (infected ICR/HA Swiss mice); parameters: ΔMST (increase in mean survival time): unit: days; conditions: s.c.; for ED100 / minimal effective dose: Plasmodium berghei, sc, 1440 h, single dose; for ED100 / minimal effective dose / Cure/Treat at Min. Curing Dose: 60-day survivors; for ED100: read-out: Lowest Dose Curing All Mice; for minimal effective dose: read-out: Min. Curing Dose; for Cure/Treat at Min. Curing Dose: at the Min. Curing Dose
Source text: as §1, §2, §3, §4, §5, §6

[3] = test system: lymphocytic leukemia P-388; assay: Activity in mice against lymphocytic leukemia P-388; assay type: in vivo; conditions: Mus musculus, P388, ip, read-out: T/C
E. coli 9637 = assay: In vitro antibacterial activity (MIC), E. coli 9637; conditions: Escherichia coli, 9637, 18 h
S. aureus Smith = assay: In vitro antibacterial activity (MIC), S. aureus Smith; conditions: Staphylococcus aureus, 18 h
S. aureus 53-180 = assay: In vitro antibacterial activity (MIC), S. aureus 53-180; conditions: Staphylococcus aureus, 53180, 18 h
P. vulgaris 6896 = assay: In vitro antibacterial activity (MIC), P. vulgaris 6896; conditions: Proteus vulgaris, 6896, 18 h
N. catarrhalis 8193 = assay: In vitro antibacterial activity (MIC), N. catarrhalis 8193; conditions: 18 h
K. pneumoniae 10031 = assay: In vitro antibacterial activity (MIC), K. pneumoniae 10031; conditions: Klebsiella pneumoniae, 10031, 18 h
[4] = infected mice, highest dose with no deaths for any reason

| SMILES | MIC (S. paratyphi 11737) [µg/mL] | MTD [1, 4] [mg/kg] | ED100 [2] [mg/kg] | minimal effective dose [2] [mg/kg] | Cure/Treat at Min. Curing Dose [2] | ΔMST (increase in mean survival time) ([2]; dose 5 mg. per kg.) | MIC (E. coli 9637) [µg/mL] | MIC (S. aureus Smith) [µg/mL] | MIC (S. aureus 53-180) [µg/mL] | MIC (P. vulgaris 6896) [µg/mL] | MIC (N. catarrhalis 8193) [µg/mL] | MIC (K. pneumoniae 10031) [µg/mL] | further results |
| --- | --- | --- | --- | --- | --- | --- | --- | --- | --- | --- | --- | --- | --- |
| Cc1ccc(Cn2ccc3c4c(N)nc(N)nc4ccc32)cc1 [Example 21] | 1.95 (≈ 6.43 µM) | 160 | 20 | 10 | 2/5 | 7.5 | 0.976 (≈ 3.22 µM) | 0.976 (≈ 3.22 µM) | 0.488 (≈ 1.61 µM) | 1.95 (≈ 6.43 µM) | 0.0152 (≈ 0.0501 µM) | 0.122 (≈ 0.402 µM) | response vs control in vivo at 10 mg/kg [3]: 138% |
| Nc1nc(N)c2c(ccc3c2ccn3Cc2ccncc2)n1 [Example 45] | 0.488 (≈ 1.68 µM) |  |  | 80 | 3/5 |  | 0.244 (≈ 0.84 µM) | 0.122 (≈ 0.42 µM) | 0.122 (≈ 0.42 µM) | 0.488 (≈ 1.68 µM) | 0.0038 (≈ 0.0131 µM) | 0.122 (≈ 0.42 µM) | ΔMST (increase in mean survival time) ([2]; dose 40 mg. per kg.): 9.7; response vs control in vivo at 15 mg/kg ([3]; mice, I.P., 15 mg/kg): 142% |
| CC(C)(C)c1ccc(Cn2ccc3c4c(N)nc(N)nc4ccc32)cc1 [Example 30] | > 250 |  |  |  |  |  | 250 (≈ 724 µM) | 7.81 (≈ 22.6 µM) | 3.9 (≈ 11.3 µM) | > 250 | 0.976 (≈ 2.83 µM) | 3.9 (≈ 11.3 µM) | response vs control in vivo at 5 mg/kg ([3]; mice, I.P., 5 mg/kg): 125% |
| CS(=O)(=O)c1ccc(Cn2ccc3c4c(N)nc(N)nc4ccc32)cc1 [Example 63, 7-[(4-Methylsulfonylphenyl)methyl]-7H-pyrrolo[3,2-f]quinazoline-1,3-diamine] | 0.976 (≈ 2.66 µM) |  |  | 10 | 1/5 | 6.5 | 0.976 (≈ 2.66 µM) | 0.122 (≈ 0.332 µM) | 0.122 (≈ 0.332 µM) | 7.81 (≈ 21.3 µM) | 0.0152 (≈ 0.0414 µM) | 0.122 (≈ 0.332 µM) | response vs control in vivo at 10 mg/kg ([3]; mice, I.P., 10 mg/kg): 136% |
| COc1cccc(Cn2ccc3c4c(N)nc(N)nc4ccc32)c1 [Example 33] | 7.81 (≈ 24.5 µM) | 40 | 40 | 10 | 1/5 | 7.6 | 0.488 (≈ 1.53 µM) | 3.9 (≈ 12.2 µM) | 0.976 (≈ 3.06 µM) | 7.81 (≈ 24.5 µM) | 0.976 (≈ 3.06 µM) | 0.488 (≈ 1.53 µM) |  |
| Nc1nc(N)c2c(ccc3c2ccn3Cc2ccc(OC(F)(F)F)cc2)n1 [Example 64, 7-[(4-Trifluoromethoxyphenyl)methyl]-7H-pyrrolo[3,2-f]quinazoline-1,3-diamine] | 62.5 (≈ 167 µM) | 10 | 10 | 2.5 | 2/5 |  | 3.9 (≈ 10.4 µM) | 0.976 (≈ 2.61 µM) | 0.244 (≈ 0.654 µM) | 62.5 (≈ 167 µM) | 0.031 (≈ 0.083 µM) | 0.122 (≈ 0.327 µM) | ΔMST (increase in mean survival time) ([2]; dose 1.25 mg. per kg.): 9.6 |
| N#Cc1ccccc1Cn1ccc2c3c(N)nc(N)nc3ccc21 [Example 14] | 0.488 (≈ 1.55 µM) | 160 | 40 | 10 | 1/5 |  | 0.244 (≈ 0.776 µM) | 0.244 (≈ 0.776 µM) | 0.244 (≈ 0.776 µM) | 1.95 (≈ 6.2 µM) | 0.061 (≈ 0.194 µM) | 0.122 (≈ 0.388 µM) | ΔMST (increase in mean survival time) ([2]; dose 10 mg. per kg.): 8.9 |
| Cc1cc(-n2ccc3c4c(N)nc(N)nc4ccc32)ccc1[N+](=O)[O-] [Example 80] | > 250 | 640 | 640 | 640 | 5/5 |  | > 250 | 62.5 (≈ 187 µM) | 7.81 (≈ 23.4 µM) | > 250 | 0.0152 (≈ 0.0455 µM) | 0.976 (≈ 2.92 µM) | ΔMST (increase in mean survival time) ([2]; dose 160 mg. per kg.): 13.9 |
| CCCCCCCn1ccc2c3c(N)nc(N)nc3ccc21 [Example 53] | 62.5 (≈ 210 µM) |  | 640 | 320 | 2/5 |  | 31.3 (≈ 105 µM) | 31.3 (≈ 105 µM) | 15.6 (≈ 52.5 µM) | 250 (≈ 841 µM) | 0.488 (≈ 1.64 µM) | 3.9 (≈ 13.1 µM) | MTD ([1]; this is the highest dose tested): 640 mg/kg; ΔMST (increase in mean survival time) ([2]; dose 160 mg. per kg.): 9.5 |
| Nc1nc(N)c2c(ccc3c2ccn3Cc2cccnc2)n1 [Example 44] | 0.488 (≈ 1.68 µM) | 160 | 160 | 80 | 3/5 |  | 0.488 (≈ 1.68 µM) | 7.81 (≈ 26.9 µM) | 0.976 (≈ 3.36 µM) | 7.81 (≈ 26.9 µM) | < 0.0009 | 0.122 (≈ 0.42 µM) | ΔMST (increase in mean survival time) ([2]; dose 40 mg. per kg.): 8.3 |
| Nc1nc(N)c2c(ccc3c2ccn3Cc2ccccc2F)n1 [Example 3] | 0.976 (≈ 3.18 µM) | 80 | 80 | 10 | 3/5 | 9.8 | 0.488 (≈ 1.59 µM) | 0.488 (≈ 1.59 µM) | 0.244 (≈ 0.794 µM) | 0.976 (≈ 3.18 µM) | 0.0152 (≈ 0.0495 µM) | 0.122 (≈ 0.397 µM) |  |
| CC(C)c1ccc(Cn2ccc3c4c(N)nc(N)nc4ccc32)cc1 [Example 29] | 62.5 (≈ 189 µM) | 20 | 20 | 10 | 1/5 |  | 7.81 (≈ 23.6 µM) | 1.95 (≈ 5.88 µM) | 0.976 (≈ 2.94 µM) | 62.5 (≈ 189 µM) | 0.244 (≈ 0.736 µM) | 0.488 (≈ 1.47 µM) | ΔMST (increase in mean survival time) ([2]; dose 10 mg. per kg.): 10.2 |
| Nc1nc(N)c2c(ccc3c2ccn3Cc2cccc(Cl)c2)n1 [Example 7] | 31.3 (≈ 96.7 µM) | 160 | 10 | 2.5 | 2/5 |  | 7.81 (≈ 24.1 µM) | 1.95 (≈ 6.02 µM) | 0.976 (≈ 3.01 µM) | 31.3 (≈ 96.7 µM) | 0.244 (≈ 0.754 µM) | 0.976 (≈ 3.01 µM) | ΔMST (increase in mean survival time) ([2]; dose 1.25 mg. per kg.): 7.7 |
| Nc1nc(N)c2c(ccc3c2ccn3Cc2ccc(Cl)c(Cl)c2)n1 [Example 10] | 31.3 (≈ 87.4 µM) | 40 | 10 | 2.5 | 2/5 |  | 3.9 (≈ 10.9 µM) | 0.976 (≈ 2.72 µM) | 0.488 (≈ 1.36 µM) | 31.3 (≈ 87.4 µM) | 0.061 (≈ 0.17 µM) | 0.488 (≈ 1.36 µM) | ΔMST (increase in mean survival time) ([2]; dose 2.5 mg. per kg.): 10.2 |
| Nc1nc(N)c2c(ccc3c2ccn3Cc2ccc3ccccc3c2)n1 [Example 48] | > 250 | 1160 | 40 | 20 | 4/5 | 7.3 | 250 (≈ 737 µM) | 125 (≈ 368 µM) | 125 (≈ 368 µM) | > 250 | 0.244 (≈ 0.719 µM) | 7.81 (≈ 23 µM) |  |
| COc1ccccc1Cn1ccc2c3c(N)nc(N)nc3ccc21 [Example 32] | 7.81 (≈ 24.5 µM) | 160 | 40 | 10 | 3/5 |  | 1.95 (≈ 6.11 µM) | 0.976 (≈ 3.06 µM) | 0.976 (≈ 3.06 µM) | 3.9 (≈ 12.2 µM) | 0.061 (≈ 0.191 µM) | 0.244 (≈ 0.764 µM) | ΔMST (increase in mean survival time) ([2]; dose 10 mg. per kg.): 10.5 |
